In US20150038545A1, “HYDROXYPHENYL PYRROLE COMPOUNDS CONTAINING AN HYDROXAMIC ACID AS HDAC INHIBITORS AND MEDICINAL APPLICATIONS THEREOF” (UNIVERSIDAD DEL PAÍS VASCO, priority 2011, published 2015):
One block for each compound: values may come before it.

What was measured:
[1] = system: MCF-7; assay: Cancer cell growth inhibition (CellTiter-Glo), MCF-7; format: cell-based, Human; settings: Breast Cancer, MCF-7, 72 h treatment
Description: (§1) Cell culture-based assays were used to evaluate the ability of compounds of the invention to inhibit cancer cell growth.
(§2) Cells were obtained from the American Type Culture Collection (ATCC). Cells were cultured at 37° C. with 5% CO2 in the appropriate growth medium (see table below), and harvested respectively during the logarithmic growth period and counted with hemocytometer. The cell viability was examined by trypan blue exclusion. Cell concentrations were adjusted to 5.56×10^4 cells/ml with respective medium.
(§3) Stock solutions of test compounds and positive drugs Doxorubicin (Zhejiang, Haizheng, China), Cisplatin (Nanjing Zhiyao, China) and Mitomycin (Zhejiang, Haizheng, China) were prepared in dimethyl sulphoxide (DMSO) or PBS at 20 mM.
(§4) In order to determine the IC50 for each compound, experiments were carried out in 96-well plates and the cell lines seeded at a density of 5,000 cells/well. […] All treatments were performed in triplicate. 10 μl of drug solution was added to each well and incubated for 72 hours. At the end of the incubation, 100 μl of the CellTiter-Glo Reagent were added to each well and the contents were mixed for 2 munites on an orbital shaker to induce cell lysis. The plate was incubated at room temperature for 10 minutes to stabilize luminiscent signal, and luminiscent was recorded. […] In order to calculate IC50 values, dose-responsive curves were fitted using nonlinear regression model with a sigmoidal dose response.

[2] = system: SK-BR-3; assay: Cancer cell growth inhibition (CellTiter-Glo), SK-BR-3; format: cell-based, Human; settings: Breast Cancer, SK-BR-3, 72 h treatment
Description: as §1, §2, §3, §4

[3] = system: DU145; assay: Cancer cell growth inhibition (CellTiter-Glo), DU145; format: cell-based, Human; settings: Prostate Cancer, DU145, 72 h treatment
Description: as §1, §2, §3, §4

[4] = system: LNCaP; assay: Cancer cell growth inhibition (CellTiter-Glo), LNCaP; format: cell-based, Human; settings: Prostate Cancer, 72 h treatment
Description: as §1, §2, §3, §4

[5] = system: PC-3; assay: Cancer cell growth inhibition (CellTiter-Glo), PC-3; format: cell-based, Human; settings: Prostate Cancer, PC-3, 72 h treatment
Description: as §1, §2, §3, §4

[6] = system: DLD-1; assay: Cancer cell growth inhibition (CellTiter-Glo), DLD-1; format: cell-based, Human; settings: Colorectal Cancer, DLD-1, 72 h treatment
Description: as §1, §2, §3, §4

[7] = system: HT-29; assay: Cancer cell growth inhibition (CellTiter-Glo), HT-29; format: cell-based, Human; settings: Colorectal Cancer, HT-29, 72 h treatment
Description: as §1, §2, §3, §4

[8] = system: LoVo; assay: Cancer cell growth inhibition (CellTiter-Glo), LoVo; format: cell-based, Human; settings: Colorectal Cancer, 72 h treatment
Description: as §1, §2, §3, §4

[9] = system: SW480; assay: Cancer cell growth inhibition (CellTiter-Glo), SW480; format: cell-based, Human; settings: Colorectal Cancer, SW480, 72 h treatment
Description: as §1, §2, §3, §4

[10] = system: A549; assay: Cancer cell growth inhibition (CellTiter-Glo), A549; format: cell-based, Human; settings: Lung Cancer, A549, 72 h treatment
Description: as §1, §2, §3, §4

[11] = system: Calu-6; assay: Cancer cell growth inhibition (CellTiter-Glo), Calu-6; format: cell-based, Human; settings: Lung Cancer, Calu-6, 72 h treatment
Description: as §1, §2, §3, §4

[12] = system: NCI-H1703; assay: Cancer cell growth inhibition (CellTiter-Glo), NCI-H1703; format: cell-based, Human; settings: Lung Cancer, NCI-H1703, 72 h treatment
Description: as §1, §2, §3, §4

[13] = system: NCI-H460; assay: Cancer cell growth inhibition (CellTiter-Glo), NCI-H460; format: cell-based, Human; settings: Lung Cancer, NCI-H460, 72 h treatment
Description: as §1, §2, §3, §4

[14] = system: SK-MES-1; assay: Cancer cell growth inhibition (CellTiter-Glo), SK-MES-1; format: cell-based, Human; settings: Lung Cancer, SK-MES-1, 72 h treatment
Description: as §1, §2, §3, §4

[15] = system: U-87MG; assay: Cancer cell growth inhibition (CellTiter-Glo), U-87MG; format: cell-based, Human; settings: Glioblastoma, 72 h treatment
Description: as §1, §2, §3, §4

[16] = system: Bx-PC-3; assay: Cancer cell growth inhibition (CellTiter-Glo), Bx-PC-3; format: cell-based, Human; settings: Pancreatic Cancer, Bx-PC-3, 72 h treatment
Description: as §1, §2, §3, §4

[17] = system: PANC-1; assay: Cancer cell growth inhibition (CellTiter-Glo), PANC-1; format: cell-based, Human; settings: Pancreatic Cancer, PANC-1, 72 h treatment
Description: as §1, §2, §3, §4

[18] = system: 786-O; assay: Cancer cell growth inhibition (CellTiter-Glo), 786-O; format: cell-based, Human; settings: Kidney Cancer, 72 h treatment
Description: as §1, §2, §3, §4

[19] = system: Hep3B; assay: Cancer cell growth inhibition (CellTiter-Glo), Hep3B; format: cell-based, Human; settings: Liver Cancer, 72 h treatment
Description: as §1, §2, §3, §4

[20] = system: A375; assay: Cancer cell growth inhibition (CellTiter-Glo), A375; format: cell-based, Human; settings: Melanoma, A375, 72 h treatment
Description: as §1, §2, §3, §4

[21] = system: SK-MEL-5; assay: Cancer cell growth inhibition (CellTiter-Glo), SK-MEL-5; format: cell-based, Human; settings: Melanoma, SK-MEL-5, 72 h treatment
Description: as §1, §2, §3, §4

[22] = system: CNE2; assay: Cancer cell growth inhibition (CellTiter-Glo), CNE2; format: cell-based, Human; settings: Nasopharyngeal, CNE2, 72 h treatment
Description: as §1, §2, §3, §4

[23] = system: MCG803; assay: Cancer cell growth inhibition (CellTiter-Glo), MCG803; format: cell-based, Human; settings: Gastric Cancer, MCG803, 72 h treatment
Description: as §1, §2, §3, §4

[24] = system: NCI-N87; assay: Cancer cell growth inhibition (CellTiter-Glo), NCI-N87; format: cell-based, Human; settings: Gastric Cancer, NCI-N87, 72 h treatment
Description: as §1, §2, §3, §4

[25] = system: BGC-823; assay: Cancer cell growth inhibition (CellTiter-Glo), BGC-823; format: cell-based, Human; settings: Gastric Cancer, BGC-823, 72 h treatment
Description: as §1, §2, §3, §4

[26] = system: SK-OV-3; assay: Cancer cell growth inhibition (CellTiter-Glo), SK-OV-3; format: cell-based, Human; settings: Ovarian Cancer, SK-OV-3, 72 h treatment
Description: as §1, §2, §3, §4

[27] = system: OVCAR3; assay: Cancer cell growth inhibition (CellTiter-Glo), OVCAR3; format: cell-based, Human; settings: Ovarian Cancer, OVCAR3, 72 h treatment
Description: as §1, §2, §3, §4

[28] = system: K562; assay: Cancer cell growth inhibition (CellTiter-Glo), K562; format: cell-based, Human; settings: CML, K562, 72 h treatment
Description: as §1, §2, §3, §4

[29] = system: KB; assay: Cancer cell growth inhibition (CellTiter-Glo), KB; format: cell-based, Human; settings: Oral Cancer, 72 h treatment
Description: as §1, §2, §3, §4

[30] = system: RPMI-8226; assay: Cancer cell growth inhibition (CellTiter-Glo), RPMI-8226; format: cell-based, Human; settings: Orthotopic Multiple Myeloma, RPMI-8226, 72 h treatment
Description: as §1, §2, §3, §4

[31] = system: HT-1080; assay: Cancer cell growth inhibition (CellTiter-Glo), HT-1080; format: cell-based; settings: Homo sapiens; Fibrosarcoma, HT-1080, 72 h treatment
Description: as §1, §2, §3, §4

[32] = system: BT474; assay: Cancer cell growth inhibition (CellTiter-Glo), BT474; format: cell-based; settings: Homo sapiens, BT-474; Breast Cancer, BT474, 72 h treatment
Description: as §1, §2, §3, §4

[33] = system: MDA-MB-231; assay: Cancer cell growth inhibition (CellTiter-Glo), MDA-MB-231; format: cell-based; settings: Homo sapiens; Breast Cancer, MDA-MB-231, 72 h treatment
Description: as §1, §2, §3, §4

[34] = system: Colo205; assay: Cancer cell growth inhibition (CellTiter-Glo), Colo205; format: cell-based; settings: Homo sapiens, COLO 205; Colorectal Cancer, Colo205, 72 h treatment
Description: as §1, §2, §3, §4

[35] = system: HCT-116; assay: Cancer cell growth inhibition (CellTiter-Glo), HCT-116; format: cell-based; settings: Homo sapiens; Colorectal Cancer, HCT-116, 72 h treatment
Description: as §1, §2, §3, §4

[36] = system: SW620; assay: Cancer cell growth inhibition (CellTiter-Glo), SW620; format: cell-based; settings: Homo sapiens, SW-620; Colorectal Cancer, SW620, 72 h treatment
Description: as §1, §2, §3, §4

[37] = system: MIAPaCa-2; assay: Cancer cell growth inhibition (CellTiter-Glo), MIAPaCa-2; format: cell-based; settings: Homo sapiens, MIA PaCa-2; Pancreatic Cancer, MIAPaCa-2, 72 h treatment
Description: as §1, §2, §3, §4

[38] = system: HepG2; assay: Cancer cell growth inhibition (CellTiter-Glo), HepG2; format: cell-based; settings: Homo sapiens; Liver Cancer, HepG2, 72 h treatment
Description: as §1, §2, §3, §4

[39] = system: SK-HEP-1; assay: Cancer cell growth inhibition (CellTiter-Glo), SK-HEP-1; format: cell-based; settings: Homo sapiens, SK-HEP1; Liver Cancer, SK-HEP-1, 72 h treatment
Description: as §1, §2, §3, §4

[40] = system: 143b; assay: Cancer cell growth inhibition (CellTiter-Glo), 143b; format: cell-based; settings: Homo sapiens, Osteosarcoma, 72 h treatment
Description: as §1, §2, §3, §4

SMILES: N.N.[Cl][Pt][Cl] [Cisplatin, reference compound]
IC50 [1]: 22.2 µM
IC50 [2]: 3.18 µM
IC50 [3]: 1.02 µM
IC50 [4]: 6.51 µM
IC50 [5]: 59.5 µM
IC50 [6]: 11.3 µM
IC50 [7]: 12.2 µM
IC50 [8]: 10.4 µM
IC50 [9]: 46.6 µM
IC50 [10]: 8.22 µM
IC50 [11]: 2.45 µM
IC50 [12]: 7.56 µM
IC50 [13]: 1.6 µM
IC50 [14]: 9.49 µM
IC50 [15]: 4.76 µM
IC50 [16]: 4.73 µM
IC50 [17]: 22 µM
IC50 [18]: 3.23 µM
IC50 [19]: 3.96 µM
IC50 [20]: 3.16 µM
IC50 [21]: 5.81 µM
IC50 [22]: 6.58 µM
IC50 [23]: 5.08 µM
IC50 [24]: 4.21 µM
IC50 [25]: 1.15 µM
IC50 [26]: 9.88 µM
IC50 [27]: 4.47 µM
IC50 [28]: 14.8 µM
IC50 [29]: 10.4 µM
IC50 [30]: 4.57 µM

IC50 [31]: 0.27 µM
SMILES: COc1cccc2c1C(=O)c1c(O)c3c(c(O)c1C2=O)C[C@@](O)(C(=O)CO)C[C@@H]3O[C@H]1C[C@H](N)[C@H](O)[C@H](C)O1 [Doxorubicin, reference compound]

SMILES: CO[C@@]12[C@H](COC(N)=O)C3=C(C(=O)C(C)=C(N)C3=O)N1C[C@@H]1N[C@@H]12 [Mitomycin, reference compound]
IC50 [32]: 30.3 µM
IC50 [33]: 19.8 µM
IC50 [34]: 2.67 µM
IC50 [35]: 0.82 µM
IC50 [36]: 1.22 µM
IC50 [37]: 0.63 µM
IC50 [38]: 0.91 µM
IC50 [39]: 8.12 µM
IC50 [40]: 0.64 µM
